Values quoted from earlier work as cited in patent US8048872B2, “Treatment of hyperproliferative diseases with vinca alkaloid N-oxide and analogs” (Stat of Oregon Acting by and Through The Oregon State Board …, priority 2006, dated 2011).
Read-outs that look alike come from different tables or passages of the source.

Settings: cited from earlier work; for patients developing pneumonia: refractory chronic lymphocytic leukemia
[1] = melanoma, 200 mg/m^2/d PO days 1-5, every 28 days, Grade III-IV
[2] = melanoma, 200 mg/m^2/d PO days 1-5, every 28 days
[3] = acute promyelocytic leukemia patients

Nc1nc(F)nc2c1ncn2[C@@H]1O[C@H](CO)[C@@H](O)[C@@H]1O [Fludarabine]
Diarrhea (Grade III-IV): Diarrhea 2%
Nausea (Grade III-IV): Nausea 3%
Neuropathy (Grade III-IV): Neuropathy 4%
Stomatitis (Grade III-IV): Stomatitis 2%
Thrombocytopenia (Grade III-IV): Thrombocytopenia 25%
Neutropenia (Grade IV (of cycles)): Neutropenia 56%
Febrile Infection During Cycles 1-3 (human, in vivo): Cycles 1-3 30%

CN(Cc1cnc2nc(N)nc(N)c2n1)c1ccc(C(=O)N[C@@H](CCC(=O)O)C(=O)O)cc1 [Methotrexate]
Hepatotoxicity (Grade III) (human, in vivo): 24.4% (all ages)
Hepatotoxicity (Grade IV) (human, in vivo): 2.4% (all ages)

CC(=O)O[C@H]1C(=O)[C@@]2(C)[C@H]([C@H](OC(=O)c3ccccc3)[C@]3(O)C[C@H](OC(=O)[C@H](O)[C@@H](NC(=O)c4ccccc4)c4ccccc4)C(C)=C1C3(C)C)[C@]1(OC(C)=O)CO[C@@H]1C[C@@H]2O [Paclitaxel]
Increased AST (human, in vivo, iv): Increased AST 5%
Leukopenia/Neutropenia Toxicity (human, in vivo, iv): Grade III-IV 23%

Cn1nnc2c(C(N)=O)ncn2c1=O [Temozolomide]
Anemia Grade III-IV (Grade III-IV): Anemia Grade III-IV 1%
Asthenia (Grade III-IV): Asthenia 6%
Fatigue (Grade III-IV): Fatigue 5%
Fever (Grade III-IV): Fever 2%
Headache (Grade III-IV): Headache 6%
Nausea (Grade III-IV): Nausea 10%
Thrombocytopenia (Grade III-IV): Thrombocytopenia 6%
Vomiting (Grade III-IV): Vomiting 6%
Leukopenia (grade not given): Leukopenia 2%
Neutropenia (grade not given): Neutropenia 2%
Fever [1]: Fever 2%
Headache [1]: Headache 6%
Thrombocytopenia [1]: Thrombocytopenia 7%
Vomiting [1]: Vomiting 5%
Anemia Grade III-IV [2]: Anemia Grade III-IV 2%
Asthenia (Grade III) [2]: Asthenia (Grade III) 3%
Constipation (Grade III) [2]: (Grade III) 3%
Fatigue (Grade III) [2]: Fatigue (Grade III) 3%
Nausea (Grade III) [2]: Nausea (Grade III) 4%
Neutropenia Grade III [2]: Grade III 1%
Neutropenia Grade IV [2]: Grade IV 2%
Pain (Grade III) [2]: Pain (Grade III) 7%

O=C1CCC(N2C(=O)c3ccccc3C2=O)C(=O)N1 (stereo not drawn) [Thalidomide]
Anemia Grade III-IV (human, in vivo): 3.6%
Thrombocytopenia (human, in vivo): Thrombocytopenia 3.6%

CC[C@@]1(O)C(=O)OCc2c1cc1n(c2=O)Cc2cc3c(CN(C)C)c(O)ccc3nc2-1 [Topotecan]
Anorexia (human, in vivo, iv): Anorexia 1%
Diarrhea (human, in vivo, iv): Diarrhea 1%
Fatigue (human, in vivo, iv): Fatigue 5%
Neutropenic Sepsis (human, in vivo, iv): Neutropenic Sepsis 5%
Sepsis (human, in vivo, iv): Sepsis 9%
Severe Bleed (human, in vivo, iv): Severe Bleed <1%
Stomatitis (human, in vivo, iv): Stomatitis 2%
Leukopenia/Neutropenia Toxicity (human, in vivo): Grade III 15%

CCC1=C[C@@H]2CN(C1)Cc1c([nH]c3ccccc13)[C@@](C(=O)OC)(c1cc3c(cc1OC)N(C)[C@H]1[C@@](O)(C(=O)OC)[C@H](OC(C)=O)[C@]4(CC)C=CCN5CC[C@]31[C@@H]54)C2 [Vinorelbine]
Anemia Grade III-IV (human, in vivo, iv): Anemia Grade III-IV 5%
Constipation (human, in vivo, iv): Constipation 3%
Diarrhea (human, in vivo, iv): 4%
Neurologic (human, in vivo, iv): Neurologic 9%
Neuropathy (human, in vivo, iv): Neuropathy 1%
Neutropenic Infection (human, in vivo, iv): <1%
Neutropenic Sepsis (human, in vivo, iv): Neutropenic Sepsis 3%
Stomatitis (human, in vivo, iv): Stomatitis <1%
Thrombocytopenia (human, in vivo, iv): Thrombocytopenia 1%

CC1=C(/C=C/C(C)=C/C=C/C(C)=C/C(=O)O)C(C)(C)CCC1 [all-trans-retinoic acid, reference compound]
lethal pulmonary toxicity [3]: 2%
life-threatening pulmonary toxicity [3]: 11%
patients developing grade III or IV pulmonary toxicity (total) [3]: Twenty
severe pulmonary toxicity [3]: 7%

Nc1nc(F)nc2c1ncn2[C@@H]1O[C@H](COP(=O)(O)O)[C@@H](O)[C@@H]1O [fludarabine phosphate, reference compound]
patients developing pneumonia (15-25 mg/m^2 daily for five days every 28 days): 22%
patients developing pneumonia (22-40 mg/m^2 daily for five days every 28 days): 16%

Nc1ccn([C@@H]2O[C@H](CO)[C@@H](O)C2(F)F)c(=O)n1 [gemcitabine, reference compound]
Constipation (human, in vivo, iv): Constipation 3%
Deep Vein Thrombosis (human, in vivo, iv): 3%
Diarrhea (human, in vivo, iv): Diarrhea 2%
Edema (human, in vivo, iv): Edema 5%
Fever (human, in vivo, iv): Fever 3%
Increased Bilirubin (human, in vivo, iv): Increased Bilirubin 41%
Neutropenic Fever (human, in vivo, iv): Neutropenic Fever 3%
Pain (human, in vivo, iv): Pain 2%
Respiratory (human, in vivo, iv): Respiratory 5%
State of Consciousness (human, in vivo, iv): Consciousness 2%
patients with grade III-IV respiratory toxicity (human, in vivo, iv): 2 out of 40
Anemia Grade III (human, in vivo): Anemia Grade III 14.3%
Hepatotoxicity (human, in vivo): (Grade III) 14.3%
Infection (human, in vivo): (Grade III) 3.6%
Leukopenia (human, in vivo): 10.7%
Leukopenia/Neutropenia Toxicity (human, in vivo): Grade III 19%
Skin Rash (human, in vivo): (Grade III) 3.6%

Alemtuzumab
Anemia Grade III-IV (Grade III-IV): 38%
Bronchitis/Pneumonitis (Grade III-IV): 13%
Dyspnea (Grade III-IV): Dyspnea 9%
Fatigue (Grade III-IV): Fatigue 5%
Fever (Grade III-IV): Fever 19%
Hypotension (Grade III-IV): Hypotension 5%
Neutropenia (Grade III-IV): 64%
Pneumonia (Grade III-IV): Pneumonia 10%
Rigors (Grade III-IV): Rigors 16%
Sepsis (Grade III-IV): Sepsis 10%
Thrombocytopenia (Grade III-IV): Thrombocytopenia 50%
Urticaria (Grade III-IV): Urticaria 5%
